In patent US7297693B2, “Nitrogen-containing heterocyclic compounds and their use as Raf inhibitors” (SmithKline Beecham P.L.C., priority 2001, dated 2007):
pIC50: −log10 of the molar value.

What was measured:
B-Raf = B-Raf (Homo sapiens, UniProt P15056); experiment: Fluorescence anisotropy kinase binding assay (Assay 1)
Description: Fluorescence Anisotropy Kinase Binding Assay
The concentration of kinase enzyme should preferably be ≧1×Kf. The concentration of fluorescent ligand required will depend on the instrumentation used, and the fluorescent and physicochemical properties. The concentration used must be lower than the concentration of kinase enzyme, and preferably less than half the kinase enzyme concentration. A typical protocol is:
All compounds are serially diluted in DMSO, then by a one step dilution into buffer of comparison, 50 mM HEPES, […] pH7.5, 1 mM CHAPS, 10 mM MgCL2, for the assay.
B-Raf Enzyme concentration: 1 nM
Fluorescent ligand concentration: 0.5 nM
Test compound concentration: 0.5 nM-100 uM
Components incubated in 10 ul final volume in LJL HE 384 type B black microtitre plate until equilibrium reached (Over 3 h, up to 30 h)
Fluorescence anisotropy read in an LJL Acquest fluorescence reader.
• Ki=dissociation constant for inhibitor binding • Kf=dissociation constant for fluorescent ligand binding
The fluorescent ligand is the following compound:
which is derived from 5-[2-(4-aminomethylphenyl)-5-pyridin-4-yl-1H-imidazol-4-yl]-2-chlorophenol and rhodamine green.

[1] = system: Normal human foreskin fibroblasts (HFF); experiment: Methylene blue growth inhibition assay (Assay 2), HFF; type: cell-based; conditions: Fibroblast, 72 h, B-Raf wt, Ras wt, Assay 2, 3 days
Method: (§1) Methylene Blue Growth Inhibition Assay (Assay 2)
(§2) Normal human foreskin fibroblasts (HFF), human melanoma (A375P, SKMEL2, SKMEL3) colon carcinoma (Colo 205) were cultured in the following growth media: A375P, Colo 205, Roswell Park Memorial Institute (RPMI) 1640 (Life Technologies 22400-089) containing 10% fetal bovine serum (FBS); HFF, Dulbecco's modified Eagle Medium (DMEM) (Life Technologies 12320-032) containing 10% FBS; SKMEL2 and SKMEL3, Minimum Essential Medium (MEM, Life Technologies 11095-080) containing 1× non-essential amino acids (Life Technologies 11140-050) and 10% FBS. Cells were harvested using 0.25% trypsin/1 mM, EDTA, counted using a haemocytometer, and plated in […] of the appropriate media, at the following densities, in a 96-well tissue culture plate (Falcon 3075): […] and A375P, 5,000 cells/well; all other cell lines, 10,000 cells/well. The next day, compounds were diluted in RPMI containing 100 micrograms/ml gentamicin, at twice the final required concentration, from 10 mM stock solutions in dimethyl sulphoxide (DMSO). One hundred microliters per well of these dilutions were added to the 100 microliters of media currently on the cell plates. RPMI containing 0.6% DMSO was added to control wells. […] Optical density at 620 nm was measured on a microplate reader. Percent inhibition of cell growth was calculated relative to vehicle treated control wells. […]

[2] = system: human colon carcinoma (Colo 201) cells; experiment: XTT 72 hr growth inhibition (Assay 3), Colo201; type: cell-based; conditions: Colorectal cancer, B-Raf ND, Ras ND, Assay 3, 72 hr
Method: XTT 72 hr Growth Inhibition Protocol for Mammalian Cultured Cells (Assay 3)
Human diploid foreskin fibroblasts (HFF) or human colon carcinoma (Colo 201) cells were grown in Dulbecco's modified Eagle's medium (DMEM) (Invitrogen/Life Technologies) containing 10% fetal bovine serum (FBS) and the antibiotics penicillin (100 Units/ml) and streotomycin (100 micrograms/ml) (Invitrogen/Life Technologies). Growth was at 37° C. in humidified 5% CO2 incubators in 75 cm^2 plastic flasks. Cells were harvested using 0.25% trypsin/1 mM ethylenediaminetetraacetic acid (EDTA), resuspended in growth medium, and counted using a hemocytometer. Flat-bottomed 96-well plates were seeded with 2×10^3 cells/well in a volume of 200 ul from trypsinized exponentially growing cultures. To “blank” wells, growth medium was added with no additions. Cells were incubated overnight to permit attachment.
Next day, medium from wells that contained cells was replaced with 180 microliters of fresh medium. Appropriate dilutions of test compounds were added to the wells from stock soloutions of compound dissolved in dimethyl sulfoxide (DMSO); final DMSO concentration in all wells was 0.2%. […] Absorbance at 450 nm was then determined using a 96-well UV plate reader (Molecular Devices). Under these conditions, absorbance of untreated control cells at 450 nm was at least 1.0 optical density unit/ml. […]

[3] = system: colon carcinoma (Colo 205); experiment: Methylene blue growth inhibition assay (Assay 2), Colo205; type: cell-based; conditions: Homo sapiens, COLO 205, 72 h; Colorectal cancer; B-Raf V599E, Ras wt; Assay 2, 3 days
Method: as §1, §2

human melanoma A375P = experiment: Methylene blue growth inhibition assay (Assay 2), A375P; type: cell-based; conditions: 72 h, B-Raf V599E, Ras wt, Assay 2, 3 days
Method: as §1, §2

human melanoma SKMEL3 = experiment: Methylene blue growth inhibition assay (Assay 2), SKMEL3; type: cell-based; conditions: SK-MEL3, 72 h, B-Raf V599E, Ras wt, Assay 2, 3 days
Method: as §1, §2

human melanoma SKMEL2 = experiment: Methylene blue growth inhibition assay (Assay 2), SKMEL2; type: cell-based; conditions: SK-MEL-2, 72 h, B-Raf wt, [Q61R]N-Ras, Assay 2, 3 days
Method: as §1, §2

Sequence of B-Raf (P15056 whole entry): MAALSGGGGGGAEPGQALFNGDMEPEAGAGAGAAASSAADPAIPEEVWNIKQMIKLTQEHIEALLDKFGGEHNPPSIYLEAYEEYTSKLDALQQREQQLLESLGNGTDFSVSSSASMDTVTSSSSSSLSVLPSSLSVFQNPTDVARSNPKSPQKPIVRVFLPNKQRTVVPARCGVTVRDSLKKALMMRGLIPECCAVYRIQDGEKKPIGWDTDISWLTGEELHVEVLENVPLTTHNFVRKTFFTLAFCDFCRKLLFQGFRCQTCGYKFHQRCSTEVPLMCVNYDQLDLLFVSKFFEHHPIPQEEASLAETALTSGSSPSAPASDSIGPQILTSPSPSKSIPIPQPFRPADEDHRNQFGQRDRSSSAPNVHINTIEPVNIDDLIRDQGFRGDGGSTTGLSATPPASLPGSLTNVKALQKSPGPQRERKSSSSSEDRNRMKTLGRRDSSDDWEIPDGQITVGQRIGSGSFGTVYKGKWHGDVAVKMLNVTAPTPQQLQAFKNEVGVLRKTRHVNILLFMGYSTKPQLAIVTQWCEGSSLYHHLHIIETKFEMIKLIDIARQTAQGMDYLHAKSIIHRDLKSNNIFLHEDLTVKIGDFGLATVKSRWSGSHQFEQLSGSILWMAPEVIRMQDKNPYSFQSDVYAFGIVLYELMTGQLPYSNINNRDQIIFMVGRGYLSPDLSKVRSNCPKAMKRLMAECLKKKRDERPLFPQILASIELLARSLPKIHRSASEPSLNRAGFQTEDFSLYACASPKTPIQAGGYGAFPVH

Kd (B-Raf): 0.4 nM
pIC50 [2]: 6.10
pIC50 [3]: 6.49
pIC50 (human melanoma A375P): 6.51
pIC50 (human melanoma SKMEL3): 6.34
pIC50 (human melanoma SKMEL2): 5.72
Structure (SMILES): O=C(c1cc(-c2ccc3c(c2)CCC3=NO)c(-c2ccncc2)o1)N1CCC(N2CCCC2)CC1 [Example 20, 5-{2-Pyridin-4-yl-5-[1-(4-pyrrolidin-1-yl-piperidin-1-yl)-methanoyl}-furan-3-yl}-indan-1-one oxime]
pIC50 [1]: < 4.52
